Like-named read-outs stand apart in the source and are kept apart here.
Columns and labels:
[1] = preliminary tissue distribution of [18F]6 in female C57BL/6 mice; format: in vivo; details: data not shown
[2] = biodistribution of [18F]6 in immature female Sprague-Dawley rats; format: in vivo; details: 1 h
[3] = format: in vivo, Sprague-Dawley rats; details: 1 h, Letrozole + PMSG treated

## C[C@]12CC[C@@H]3c4ccc(O)cc4CC[C@@]3(CC[18F])[C@@H]1CC[C@@H]2O [[^18F]6, 8β-(2-[^18F]fluoroethyl)estradiol]
[1]
  tissue distribution (in words): elevated lung uptake
[2]; DPN blocked (200 μg)
  percentage injected dose/gram, blood: 0.22 ± 0.03 %ID/g
  percentage injected dose/gram, bone: 0.40 ± 0.04 %ID/g
  percentage injected dose/gram, fat: 0.58 ± 0.08 %ID/g
  percentage injected dose/gram, heart: 0.18 ± 0.03 %ID/g
  percentage injected dose/gram, kidney: 0.70 ± 0.10 %ID/g
  percentage injected dose/gram, liver: 1.50 ± 0.20 %ID/g
  percentage injected dose/gram, lung: 0.33 ± 0.05 %ID/g
  percentage injected dose/gram, muscle: 0.15 ± 0.01 %ID/g
  percentage injected dose/gram, ovaries: 0.33 ± 0.04 %ID/g
  percentage injected dose/gram, spleen: 0.15 ± 0.02 %ID/g
  percentage injected dose/gram, thymus: 0.12 ± 0.02 %ID/g
  percentage injected dose/gram, uterus: 0.23 ± 0.05 %ID/g
[2]; E2 blocked (estradiol 20 μg)
  percentage injected dose/gram, blood: 0.25 ± 0.07 %ID/g
  percentage injected dose/gram, bone: 0.37 ± 0.04 %ID/g
  percentage injected dose/gram, fat: 0.58 ± 0.10 %ID/g
  percentage injected dose/gram, heart: 0.21 ± 0.04 %ID/g
  percentage injected dose/gram, kidney: 0.78 ± 0.15 %ID/g
  percentage injected dose/gram, liver: 1.63 ± 0.26 %ID/g
  percentage injected dose/gram, lung: 0.39 ± 0.06 %ID/g
  percentage injected dose/gram, muscle: 0.19 ± 0.05 %ID/g
  percentage injected dose/gram, ovaries: 0.44 ± 0.15 %ID/g
  percentage injected dose/gram, spleen: 0.16 ± 0.03 %ID/g
  percentage injected dose/gram, thymus: 0.13 ± 0.03 %ID/g
  percentage injected dose/gram, uterus: 0.38 ± 0.25 %ID/g
[2]; PPT blocked (200 μg)
  percentage injected dose/gram, blood: 0.24 ± 0.06 %ID/g
  percentage injected dose/gram, bone: 0.43 ± 0.12 %ID/g
  percentage injected dose/gram, fat: 0.68 ± 0.19 %ID/g
  percentage injected dose/gram, heart: 0.19 ± 0.04 %ID/g
  percentage injected dose/gram, kidney: 0.78 ± 0.19 %ID/g
  percentage injected dose/gram, liver: 1.54 ± 0.39 %ID/g
  percentage injected dose/gram, lung: 0.45 ± 0.12 %ID/g
  percentage injected dose/gram, muscle: 0.19 ± 0.05 %ID/g
  percentage injected dose/gram, ovaries: 0.37 ± 0.13 %ID/g
  percentage injected dose/gram, spleen: 0.16 ± 0.05 %ID/g
  percentage injected dose/gram, thymus: 0.12 ± 0.02 %ID/g
  percentage injected dose/gram, uterus: 0.35 ± 0.15 %ID/g
[2]; 13 μCi iv
  percentage injected dose/gram, blood: 0.22 ± 0.05 %ID/g
  percentage injected dose/gram, bone: 0.36 ± 0.04 %ID/g
  percentage injected dose/gram, fat: 0.55 ± 0.09 %ID/g
  percentage injected dose/gram, heart: 0.18 ± 0.04 %ID/g
  percentage injected dose/gram, kidney: 0.64 ± 0.14 %ID/g
  percentage injected dose/gram, liver: 1.52 ± 0.23 %ID/g
  percentage injected dose/gram, lung: 0.39 ± 0.09 %ID/g
  percentage injected dose/gram, muscle: 0.15 ± 0.03 %ID/g
  percentage injected dose/gram, ovaries: 0.30 ± 0.11 %ID/g
  percentage injected dose/gram, spleen: 0.15 ± 0.03 %ID/g
  percentage injected dose/gram, thymus: 0.12 ± 0.03 %ID/g
  percentage injected dose/gram, uterus: 0.33 ± 0.14 %ID/g
[2]; ovary
  blocking of ovary uptake by estradiol, DPN or PPT (in words): nor was it substantially blocked by any of the three agents
[3]; DPN blocked (200 μg)
  percentage injected dose/gram, blood: 0.17 ± 0.03 %ID/g
  percentage injected dose/gram, bone: 0.37 ± 0.07 %ID/g
  percentage injected dose/gram, fat: 0.53 ± 0.18 %ID/g
  percentage injected dose/gram, heart: 0.15 ± 0.02 %ID/g
  percentage injected dose/gram, kidney: 0.59 ± 0.11 %ID/g
  percentage injected dose/gram, liver: 1.41 ± 0.22 %ID/g
  percentage injected dose/gram, lung: 0.36 ± 0.05 %ID/g
  percentage injected dose/gram, muscle: 0.13 ± 0.02 %ID/g
  percentage injected dose/gram, ovaries: 0.32 ± 0.10 %ID/g
  percentage injected dose/gram, spleen: 0.12 ± 0.01 %ID/g
  percentage injected dose/gram, thymus: 0.09 ± 0.02 %ID/g
  percentage injected dose/gram, uterus: 0.22 ± 0.03 %ID/g
[3]; E2 blocked (estradiol 20 μg)
  percentage injected dose/gram, blood: 0.19 ± 0.02 %ID/g
  percentage injected dose/gram, bone: 0.33 ± 0.02 %ID/g
  percentage injected dose/gram, fat: 0.50 ± 0.11 %ID/g
  percentage injected dose/gram, heart: 0.14 ± 0.01 %ID/g
  percentage injected dose/gram, kidney: 0.55 ± 0.08 %ID/g
  percentage injected dose/gram, liver: 1.51 ± 0.13 %ID/g
  percentage injected dose/gram, lung: 0.38 ± 0.04 %ID/g
  percentage injected dose/gram, muscle: 0.12 ± 0.01 %ID/g
  percentage injected dose/gram, ovaries: 0.30 ± 0.06 %ID/g
  percentage injected dose/gram, spleen: 0.12 ± 0.07 %ID/g
  percentage injected dose/gram, thymus: 0.10 ± 0.01 %ID/g
  percentage injected dose/gram, uterus: 0.20 ± 0.04 %ID/g
[3]; PPT blocked (200 μg)
  percentage injected dose/gram, blood: 0.16 ± 0.03 %ID/g
  percentage injected dose/gram, bone: 0.34 ± 0.05 %ID/g
  percentage injected dose/gram, fat: 0.53 ± 0.16 %ID/g
  percentage injected dose/gram, heart: 0.14 ± 0.02 %ID/g
  percentage injected dose/gram, kidney: 0.51 ± 0.09 %ID/g
  percentage injected dose/gram, liver: 1.40 ± 0.12 %ID/g
  percentage injected dose/gram, lung: 0.36 ± 0.06 %ID/g
  percentage injected dose/gram, muscle: 0.12 ± 0.02 %ID/g
  percentage injected dose/gram, ovaries: 0.30 ± 0.05 %ID/g
  percentage injected dose/gram, spleen: 0.12 ± 0.02 %ID/g
  percentage injected dose/gram, thymus: 0.08 ± 0.01 %ID/g
  percentage injected dose/gram, uterus: 0.19 ± 0.02 %ID/g
[3]; 18 μCi iv
  percentage injected dose/gram, blood: 0.23 ± 0.07 %ID/g
  percentage injected dose/gram, bone: 0.40 ± 0.10 %ID/g
  percentage injected dose/gram, fat: 0.49 ± 0.12 %ID/g
  percentage injected dose/gram, heart: 0.17 ± 0.03 %ID/g
  percentage injected dose/gram, kidney: 0.66 ± 0.12 %ID/g
  percentage injected dose/gram, liver: 1.67 ± 0.31 %ID/g
  percentage injected dose/gram, lung: 0.41 ± 0.02 %ID/g
  percentage injected dose/gram, muscle: 0.14 ± 0.03 %ID/g
  percentage injected dose/gram, ovaries: 0.34 ± 0.04 %ID/g
  percentage injected dose/gram, spleen: 0.13 ± 0.16 %ID/g
  percentage injected dose/gram, thymus: 0.10 ± 0.01 %ID/g
  percentage injected dose/gram, uterus: 0.26 ± 0.07 %ID/g

From article PMC3465515 (Nuclear medicine and biology, 2012)
